According to patent US20150224190A1, “Combination of a phosphoinositide 3-kinase inhibitor and an inhibitor of the IL-8/CXCR interaction” (priority 2012, published 2015):

How the values were obtained:
JAK2/STAT5 = JAK2/STAT5 phosphorylation in breast cancer cell lines (pJAK2 ELISA, pSTAT5 immunoblot); assay type: cell-based, human; conditions: for JAK2 activation, starting at (time of treatment): in vitro, time after adding the compound
Procedure: MDA231, lung metastatic subline MDA231 LM2 (Minn et al., 2005) and SUM159 human breast cancer cells, as well as the Balb/c tumor-derived mammary cancer lines 4T-1 and 168FARN (Aslakson and Miller, 1992), were propagated as previously described. All other cell lines were obtained from and were cultured according to the protocols of ATCC. For treatment with inhibitors, cells were synchronized without serum overnight and then supplemented with culture medium containing the inhibitor(s). For experiments with doxycycline-inducible shRNAs, 500 ng/ml of doxycycline (Sigma) was added to the medium and experiments performed 48 h later. Cell viability assays, cell cycle and cell death measurements were performed at 0.5% FCS in order to avoid masking effects of growth factors present under full-serum conditions.
Cells for Western Blotting and ELISA were lysed with RIPA buffer. Xenograft lysates were prepared by lysing kryo-homogenized tumor powder in RIPA buffer (50 mM Tris-HCl pH 8, 150 mM NaCl, 1% NP-40, 0.5% sodium deoxycholate, 0.1% SDS. RIPA was supplemented with 1× protease inhibitor cocktail (Complete Mini, Roche), 0.2 mmol/L sodium-vanadate, 20 mM sodium fluoride and 1 mmol/L phenylmethylsulfonyl fluoride. For IRS-1 immunoprecipitation, cell lysates containing 500-1000 μg of protein were incubated with 1 μg of antibody and 20-50 μl of protein A-Sepharose beads (Zymed Laboratories, Inc., South San Francisco, Calif.) overnight at 4° C. Immunoprecipitates or whole cell lysates (30-80 μg) were subjected to SDS-PAGE, transferred to PVDF membranes (Immobilon-P, Millipore) and blocked for 1 hr at room temperature with 5% milk in PBS-0.1% Tween 20. Membranes were then incubated overnight with antibodies as indicated and exposed to secondary HRP-coupled anti-mouse or -rabbit antibody at 1:5-10,000 for 1 h at room temperature. Proteins were visualized using an ECL kit (Amersham) or an enhanced chemiluminescence detection system (Pierce Biotechnology). In each of the studies presented, the results shown are typical of at least three independent experiments. The following antibodies were used: anti-JAK2 (Cell Signaling), anti-JAK1 (Cell Signaling), anti-pSTAT5 (Tyr694, Cell Signaling), anti-STAT5 (STAT5A&B, Cell Signaling), anti-STAT3 (Cell Signaling), anti-pSTAT3 (Tyr705, Cell Signaling), anti-AKT pan (Cell Signaling), anti-pAKT (Thr308 and Ser473, Cell Signaling), anti-ERK2 (Santa Cruz), anti-S6 (Cell Signaling), anti-pS6 (Ser235/236, Cell Signaling), anti-PARP (Cell Signaling), anti-MCL1 (Cell Signaling), anti-BIM (EL, L and S isoforms, Cell Signaling), anti-pIGF1R/plnsR (Invitrogen), anti-IGF1Rbeta (Cell Signaling), anti-InsRbeta (Santa Cruz), anti-IRS1 (Upstate), anti-plRS1 (Tyr612, Calbiochem).
For assessing pJAK2 levels, an ELISA assay (Tyr1007/1008, Invitrogen) was applied because of cross-reactivity of all pJAK2 antibodies tested. Interleukin-8 levels in RIPA lysates, cell culture supernatants and mouse tail vein blood plasma were measured by ELISA, as well (Biolegend). […]
The present inventors applied single doses of COMPOUND A, a dual PI3K and mTOR inhibitor, and analyzed target inhibition and potential signaling pathway crosstalks after 2, 4, 8 and 20 h hours of treatment. […] While RAD001 readily activated JAK2 starting at 4 hours of treatment, they observed a later response with BKM120 treatment starting at 8 hours after adding the compound. […]

MDA231 LM2 cells = experiment: Matrigel Boyden chamber invasion assay; assay type: cell-based, human; conditions: 300 nM BEZ235, 350 nM NVP-BSK805, CXCR1 blocking antibody; 48 h; normalized to cell number
Procedure: FIG. 2. Blockade of CXCR1 reduces invasion and has minor effects on primary tumor growth (A) NVP-BSK805 and CXCR1 blockade but not BEZ235 decrease invasion. Bar graphs showing relative invasion of MDA231 LM2 cells seeded on Matrigel coated Boyden invasion chambers and treated with 300 nM BEZ235, 350 nM NVP-BSK805, a JKA2 inhibitor, and/or CXCR1 blocking antibody. Invasion was assessed after 48 h, data represent relative invasion values normalized to cell number and are means±SEM (n=4, *P<0.05).
Cytokine stimulation of cells was performed for 30 min in medium with 0.5% FCS supplemented with cytokines at 10 ng/ml, except for EPO at 10 U/ml. Antibody-blocking experiments were performed by adding anti-CXCR1 (R&D, MAB330, 1 μg/ml), anti-CXCR2 (R&D, MAB331, 2.5 μg/ml) or a mouse IgG antibody (R&D, 1 μg/ml) to the medium 45 min prior to lysis of the cells. Cell viability was measured using the Cell Proliferation Reagent WST-1 (Roche). Colony formation assays were performed by seeding 1000 cells/well in 6-well plates and staining single colonies after 7-14 days with 0.2% crystal violet in PBS/4% formalin. […] The number of invading cells in each treatment condition was counted 48 h after seeding by microscopy at 40× (using the mean of 4 microscopic fields) and normalized to cell number.

Structure (SMILES) | JAK2 activation, starting at (time of treatment) (JAK2/STAT5) [h] | relative invasion (MDA231 LM2 cells) | upregulation of pSTAT5 by BEZ235 (JAK2/STAT5; JAK2 inhibitor together with BEZ235)
Nc1cc(C(F)(F)F)c(-c2cc(N3CCOCC3)nc(N3CCOCC3)n2)cn1 [COMPOUND C, 5-(2,6-di-morpholin-4-yl-pyrimidin-4-yl)-4-trifluoromethyl-pyridin-2-ylamine] | 8 |  | 
Fc1cc(-c2cccc3ncc(-c4cnn(C5CCNCC5)c4)nc23)cc(F)c1CN1CCOCC1 [NVP-BSK805, reference compound] |  | decrease | counteracted
CO[C@H]1C[C@@H]2CC[C@@H](C)[C@@](O)(O2)C(=O)C(=O)N2CCCC[C@H]2C(=O)O[C@H]([C@H](C)C[C@@H]2CC[C@@H](OCCO)[C@H](OC)C2)CC(=O)[C@H](C)/C=C(\C)[C@@H](O)[C@@H](OC)C(=O)[C@H](C)C[C@H](C)/C=C/C=C/C=C/1C [RAD001, reference compound] | 4 |  | 
